Measured values taken from ChEMBL document CHEMBL1159097, “Synthesis and structural and pharmacological properties of cyclopropane-based conformationally restricted analogs of 4-methylhistamine as histamine H3/H4 receptor ligands” (Bioorg Med Chem, 2010).

Experiments:
Histamine H3 receptor [1] = molecular target: T1, Histamine H3 receptor (Homo sapiens, UniProt Q9Y5N1); assay: Displacement of [3H]Nalpha-methylahistamine from human histamine H3 receptor
Histamine H4 receptor = Histamine H4 receptor (Homo sapiens, UniProt Q9H3N8); assay: Displacement of [3H]histamine from human histamine H4 receptor
Histamine H3 receptor [2] = molecular target: T1, Histamine H3 receptor; assay: Binding affinity to histamine H3 receptor

T1 sequence (Q9Y5N1 whole entry): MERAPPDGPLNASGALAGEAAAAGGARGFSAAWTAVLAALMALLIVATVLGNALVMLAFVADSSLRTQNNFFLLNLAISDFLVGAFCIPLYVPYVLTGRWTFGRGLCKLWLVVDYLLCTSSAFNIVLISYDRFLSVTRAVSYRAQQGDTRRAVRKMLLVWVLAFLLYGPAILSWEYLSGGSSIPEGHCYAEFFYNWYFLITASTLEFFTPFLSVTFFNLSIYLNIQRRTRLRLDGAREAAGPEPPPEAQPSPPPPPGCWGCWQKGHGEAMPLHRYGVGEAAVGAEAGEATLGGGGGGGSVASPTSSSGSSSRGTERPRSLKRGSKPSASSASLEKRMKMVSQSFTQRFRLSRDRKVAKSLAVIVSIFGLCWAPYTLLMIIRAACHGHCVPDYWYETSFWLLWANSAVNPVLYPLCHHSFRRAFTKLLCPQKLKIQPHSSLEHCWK
Histamine H4 receptor, sequence (Q9H3N8 whole entry): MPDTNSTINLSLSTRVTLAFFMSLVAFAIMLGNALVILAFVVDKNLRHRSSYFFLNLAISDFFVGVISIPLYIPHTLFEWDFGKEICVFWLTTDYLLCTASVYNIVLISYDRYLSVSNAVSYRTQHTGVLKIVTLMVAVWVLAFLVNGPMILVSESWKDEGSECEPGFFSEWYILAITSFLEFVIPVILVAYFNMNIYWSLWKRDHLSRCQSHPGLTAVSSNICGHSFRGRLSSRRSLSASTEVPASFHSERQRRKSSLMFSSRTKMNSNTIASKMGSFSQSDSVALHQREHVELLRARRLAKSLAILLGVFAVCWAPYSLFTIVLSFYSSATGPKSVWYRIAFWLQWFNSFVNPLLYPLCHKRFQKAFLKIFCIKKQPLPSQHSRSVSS

SMILES	Ki (Histamine H3 receptor [1]) [nM]	Ki (Histamine H4 receptor) [nM]	Ki (Histamine H3 receptor [2]) [nM]
Cc1nc[nH]c1[C@@H]1C[C@H]1CCNCc1ccc(Cl)cc1	38.7	148	–
NCC[C@@H]1C[C@@H]1c1cnc[nH]1	–	–	1.3
Cc1[nH]cnc1[C@@H]1C[C@H]1CNCc1ccc(Cl)cc1	> 1000	> 1000	–
